# Assay results published in patent US20200246314A1, “DYSLIPIDEMIA THERAPEUTIC AGENT” (KOWA COMPANY, LTD., priority 2014, published 2020).
# Test system: LDL-C in plasma
# Experiment: Effect on LDL-C of rat in combination use of compound A and niacin
# Assay type: in vivo
# Conditions: male SD rats, oral once per day for one week, blood 4 h after final administration; single agent: compound A 0.1 mg/kg or nicotinic acid 100 mg/kg
# From the text: Male rats (6-week-old, Jcl:SD, CLEA Japan, Inc.) were used for an experiment. Blood was collected from the jugular vein under satiation. The rats were divided into four groups (N=8) based on TG and TC in plasma and a body weight. For one week from the next day, each of a solvent (0.5% methylcellulose aqueous solution: MC), compound A alone, nicotinic acid alone, and combination of compound A and nicotinic acid was orally administered once per day. Four hours after final administration of the pharmaceutical agent, blood was collected under isoflurane anesthesia, and LDL-C in plasma was measured using high performance liquid chromatography by a method of Usui et al (Usui S et al. Clin Chem., 46, 63-72, 2000). Group 1: Control Group 2: 0.1 mg/kg of compound A […] Group 4: 0.1 mg/kg of compound A and 100 mg/kg of nicotinic acid Results were presented by an average value±standard deviation. Comparison between the control group and each of the pharmaceutical agent administration groups was performed by a multiple comparison test of Dunnett, and a risk rate of less than 5% was determined to have a significant difference.
row,SMILES,effect on LDL-C in plasma
1,"CC[C@@H](Oc1cccc(CN(CCCOc2ccc(OC)cc2)c2nc3ccccc3o2)c1)C(=O)O [Compound A, (R)-2-[3-[[N-(benzoxazol-2-yl)-N-3-(4-methoxyphenoxy)propyl]aminomethyl]phenoxy] butyric acid]",did not exhibit a clear effect on LDL-C
2,"O=C(O)c1cccnc1 [nicotinic acid, pyridine-3-carboxylic acid]",did not exhibit a clear effect on LDL-C
